Measurements published in PubChem BioAssay (NCI).
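These data come from cells grown in 96-well plates and exposed to compound for 48 hours at five concentrations. TGI is the concentration that stops growth completely.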

Experiments:
Assay in all cases: NCI-60 cell line screen, 48 h
[1] = system: MALME-3M melanoma
[2] = system: HT29 colon
[3] = system: MDA-MB-231 breast
[4] = system: OVCAR-4 ovarian
[5] = system: MDA-MB-435
[6] = system: MDA-N
[7] = system: NCI/ADR-RES ovarian
[8] = system: HS 578T breast
[9] = system: BT-549 breast
[10] = system: OVCAR-8 ovarian
[11] = system: IGROV1 ovarian

SMILES	TGI [1] [µM]	TGI [2] [µM]	TGI [3] [µM]	TGI [4] [µM]	TGI [5] [µM]	TGI [6] [µM]	TGI [7] [µM]	TGI [8] [µM]	TGI [9] [µM]	TGI [10] [µM]	TGI [11] [µM]
COC(=O)/C=C1/OC(c2ccc(OC)cc2)=C(Cl)C1=O	30.7	36.5	26.2	30.1	30.4	32.7	66.5	84	26.3	28.2	34.1
CN1CC2CN(Cc3ccccc3)CCN2c2cccnc21 (stereo not given)	> 100	87.9	> 100	> 100	> 100	> 100	> 100	> 100	> 100	> 100	> 100
CCOC(=O)c1nnc2c(C#N)c(-c3ccccc3)c(C)n2c1N	65.2	> 100	> 100	43.6	> 100	> 100	> 100	85.7	> 100	98.3	66.6
O=C(OCCNC(=O)N1CC1)OCCNC(=O)N1CC1	> 10	> 10	> 10	> 10	> 10	> 10	> 10	> 10	> 10	> 10	> 10
CC(C)N(C(C)C)S(=O)(=O)C[C@]12CC[C@H](CC13OCC(CS(=O)(=O)c1ccccc1)O3)C2(C)C (stereo not given in full)	> 100	> 100	> 100	> 100	> 100	> 100	> 100	> 100	> 100	> 100	> 59.5
ClCCCCCc1c2nc(c(CCCCCCl)c3ccc([nH]3)c(CCCCCCl)c3ccc([nH]3)c(CCCCCCl)c3nc1C=C3)C=C2	> 100	> 100	> 100	> 100	> 100	> 100	> 100	> 100	> 100	> 100	> 100
c1ccc([I+]c2ccccc2)cc1	> 100	> 100	> 100	> 100	> 100	> 100	> 100	> 100	> 100	> 100	> 100
Cc1cnc2sn(-c3ccc(Br)cc3)c(=O)c2c1	43.6	75	> 100	79.3	> 100	> 100	> 100	88.1	> 100	> 100	> 100
O=c1cc(-c2cccnc2)[nH]c2cc3c(cc12)OCO3	> 26	59.3	> 100	> 100	4.6	5.71	40	69.6	> 100	> 95.3	> 28.1
CC(=O)N(C(C)=O)c1cc2c3c(c1)CCCN3CCC2	> 10	> 10	> 10	> 10	> 10	> 10	> 10	> 10	> 10	> 10	> 10
